Results reported in patent US12616203B2, “Use of 3-isoxazolidinones compounds as selective herbicides” (FMC Corporation, priority 2014, dated 2026).
“Also recorded” adds a separate entry of the source. Read-outs that look alike come from different tables or passages of the source.

Legend:
[1] = test system: Common lambsquarters; assay: Ex34 PRE 2,4-DC + napropamide, % control, Colby; format: in vivo, Chenopodium album; details: 28 DAT
Excerpt: Thereafter flats were watered and fertilized routinely.

[2] = test system: weeds; Wheat and canola; assay: Ex28 PRE greenhouse; format: in vivo; details: 28 DAT, rate in the words
Excerpt: The tested weeds in this study are redroot pigweed (Amaranth retroflexus, AMARE), Italian ryegrass (Lolium perenne. multiflorum, LOLMU), wild mustard (Sinapis arvensis, SINAR), annual bluegrass (Poa annua, POAAN), wild oat (Avena fatua, AVEFA), blackgrass (Alopecurus myosuroides, ALOMY), common lambsquarters (Chenopodium album, CHEAL), littleseed canarygrass (Phalaris minor, PHAMI), common chickweed (Stellaria media, STEME), corn poppy (Papaver rhoeas, PAPRH), and silky windgrass (Apera spica-venti, APESV). The tested crops are wheat and canola.
Additionally, 2,4 DC was applied alone at 400 g ai/ha.
Treatments were applied before the emergence of redroot pigweed, Italian ryegrass, wild oat, blackgrass, littleseed canarygrass, common chickweed, common lambsquarters, corn poppy, wild mustard, annual bluegrass, silky windgrass, canola, and wheat. […] Flats were watered and fertilized routinely after treatment application.

[3] = test system: Common ragweed; assay: Ex16 PRE 2,4-DC + pyroxasulfone, % control 28 DAT, Colby; format: in vivo, Ambrosia artemisiifolia
Excerpt: To determine PRE efficacy, five levels of 2,4 DC (36.7% CS) 0, 125, 170, 210, or 250 g ai/ha and five levels of pyroxasulfone (KIH485-85WG) 0, 50, 65, 80, or 95 g ai/ha were applied either alone or as tank-mix. Additional treatments consisted of premix of pyroxasulfone plus fluthiacet-methyl (Anthem™ 23.3%) at 169.9 g ai/ha, S-metolachlor (Dual II Magnum, 82.4%) at 1388 g, and tank-mix of mesotrione (Callisto, 40%) at 123 g plus S-metolachlor at 1252 g. […] Treatments were applied before the emergence of black nightshade, giant foxtail, green foxtail, yellow foxtail, large crabgrass, kochia, redroot pigweed, common ragweed, and barnyardgrass.
Flats were watered and fertilized routinely after treatment application. Each treatment was replicated three times.

[4] = test system: sweet corn, yellow corn, and sorghum; details: PRE; crop and rate in the words
Excerpt: Treatments were also applied ot sweet corn, yellow corn, and sorghum.
Treatments were applied before the emergence of Jimsonweed, velvetleaf, hairy beggarticks, common cocklebur, barnyardgrass, sweet corn, yellow corn, and sorghum. Plant species were planted in fiber flats (6″×10″) containing Pennington soil and flats were watered well before application and watered lightly after application. Flats were watered and fertilized routinely after treatment application.

[5] = test system: Ivyleaf morningglory; assay: Ex17 PRE 2,4 DC + isoxaflutole, % control 28 DAT, Colby; format: in vivo, Ipomoea hederacea
Experimental: (§1) In this example a study was conducted to determine weed efficacy and sugarcane injury when 2,4 DC or isoxaflutole are applied either alone or tank-mix as preemergence against the weeds: Ivyleaf morningglory (Ipomoea hederacea, IPOHE), hairy beggartickss (Bidens pilosa, BIDPI), yellow nutsedge (Cyperus esculentus, CYPES), large crabgrass (Digitaria sanguinalis, DIGSA), and redroot pigweed (Amaranthus retroflexus, AMARE). The crop tested in this study was Sugarcane (var. CTC 20).
To determine weed efficacy and sugarcane selectivity, 2,4 DC (SC 36%) and isoxaflutole (Balance Flexx®, 20%) were applied PRE either alone or as tank-mix partners at rates mentioned below. 2,4 DC was applied at 500, 750, and 1000 g ai/ha while isoxaflutole was applied at 80, 100, and 120 g ai/ha. […] Treatments were applied PRE to sugarcane (var. CTC 20), ivyleaf morningglory, hairy beggarticks, yellow nutsedge, large crabgrass, and redroot pigweed. […] Soil was watered before application and watered lightly after application. Flats were watered and fertilized routinely after treatment application.

[6] = test system: weeds; wheat, and corn; assay: Ex38 PRE greenhouse; format: in vivo; details: rate in the words
Excerpt: Pyroxasulfone plus fluthiacet-methyl (ANTHEM™, 23.3%) applied at 165 g ai/ha was included as a standard for comparison. […] Thereafter flats were watered and fertilized routinely.

[7] = test system: wheat; format: in vivo; details: 14 DAT, POST, 2,4-DC 210 g ai/ha
Experimental: (§2) Treatments were applied to wheat and barley crops.
(§3) Nonionic surfactant was added at 0.5% v/v in all treatments. Treatments were applied to wheat (5.5″), barley (5″), wild oat (5.5″), common chickweed (2″), wild buckwheat (3″), and common lambsquarters (2″). All plant species were direct seeded into 3″ plastic pots using metro-mix as growth media and pots were watered well before application and watered 24 h after application. Plants were watered and fertilized routinely after treatment application. Each treatment was replicated four times.

[8] = test system: Barley; format: in vivo; details: 14 DAT
Experimental: as §2, §3

[9] = test system: Common cocklebur; assay: Ex37 PRE 2,4-DC + atrazine, % control 28 DAT, Colby; format: in vivo, Xanthium strumarium
Excerpt: S-metolachlor (DUAL II MAGNUM®, 82.4%) at 525 g ai/h plus atrazine at 560 g ai/h was included as a standard for comparison. […] Thereafter flats were watered and fertilized routinely.

[10] = test system: weeds; Sugarcane (var. CTC 20); assay: Ex17 PRE greenhouse; format: in vivo; details: weed and rate in the words
Experimental: as §1
To determine weed efficacy and sugarcane selectivity, 2,4 DC (SC 36%) and isoxaflutole (Balance Flexx®, 20%) were applied PRE either alone or as tank-mix partners at rates mentioned below. 2,4 DC was applied at 500, 750, and 1000 g ai/ha while isoxaflutole was applied at 80, 100, and 120 g ai/ha. […] Treatments were applied PRE to sugarcane (var. CTC 20), ivyleaf morningglory, hairy beggarticks, yellow nutsedge, large crabgrass, and redroot pigweed. Weed species were planted in fiber flats (6″×10″) containing Pennington soil. Soil was watered before application and watered lightly after application. Flats were watered and fertilized routinely after treatment application.

[11] = test system: weeds; Corn; assay: Ex25 PRE greenhouse; format: in vivo; details: rate in the words
Excerpt: The crop tested in this study was Corn.
2,4 DC-21 (36.7% CS) was applied PRE at 0, 125, 170, 210, or 250 g ai/ha alone or as a tank-mix with pyroxasulfone (KIH-485, 85% WP) at 0, 50, 65, 80, or 95 g ai/ha. Pyroxasulfone plus fluthiacet-methyl (Anthem™, 23.3%) applied at 169.9 g ai/ha, s-metolachlor (Dual II Magnum®, 82.4%) applied at 1389 g, and the tank-mix of mesotrione (Callisto®, 40%) at 123 g plus s-metolachlor (Dual II Magnum®, 82.4%) at 1252 g were included as a standards for comparison. […] Thereafter flats were watered and fertilized routinely.

SMILES: CC1(C)CON(Cc2ccc(Cl)cc2Cl)C1=O [2,4-DC, 2-(2,4-dichlorophenyl)methyl-4,4-dimethyl-3-isoxazolidinone]
- X ([1]; 2,4-DC alone 31 g ai/ha): 28%
- X ([1]; 2,4-DC alone 63 g ai/ha): 43%
- X ([1]; 2,4-DC alone 125 g ai/ha): 85%
- X ([1]; 2,4-DC alone 250 g ai/ha): 91%
- X ([1]; 2,4-DC alone 375 g ai/ha): 93%
- weed control / crop safety in words [2]: alone provided control of pigweed and corn poppy at 400 g, Italian ryegrass at ≥200 g, blackgrass and lambsquarters at 400 g, and chickweed at all rates; also recorded: caused greater than 10% injury to canola at all rates and 2,4 DC was safe on wheat up to 200 g ai/ha
- X ([3]; 2,4-DC alone 125 g ai/ha): 33%
- X ([3]; 2,4-DC alone 170 g ai/ha): 40%
- X ([3]; 2,4-DC alone 210 g ai/ha): 40%
- X ([3]; 2,4-DC alone 250 g ai/ha): 45%
- crop safety in words [4]: alone was safe on sweet corn and sorghum at the lowest rate while safe on yellow corn at 50 or 100 g ai/ha
- X ([5]; 2,4-DC alone 500 g ai/ha): 67%
- X ([5]; 2,4-DC alone 750 g ai/ha): 78%
- X ([5]; 2,4-DC alone 1000 g ai/ha): 88%
- weed control / crop safety in words [6]: applied alone at ≥50 g ai/ha controlled (≥85%) kochia, at ≥200 g controlled Italian ryegrass or redroot pigweed, and controlled velvetleaf at 400 g
- % crop injury for 2,4-DC alone [7]: 31%
- % crop injury for 2,4-DC alone ([8]; POST, 2,4-DC 125 g ai/ha): 17%
- % crop injury for 2,4-DC alone ([8]; POST, 2,4-DC 170 g ai/ha): 17%
- % crop injury for 2,4-DC alone ([8]; POST, 2,4-DC 210 g ai/ha): 18%
- % crop injury for 2,4-DC alone ([8]; POST, 2,4-DC 250 g ai/ha): 23%
- X ([9]; 2,4-DC alone 50 g ai/ha): 0%
- X ([9]; 2,4-DC alone 100 g ai/ha): 7%
- X ([9]; 2,4-DC alone 200 g ai/ha): 60%
- weed control in words [10]: Large crabgrass and redroot pigweed were controlled with 2,4 DC alone at 500 g or higher rates
- weed control / crop safety in words [11]: applied alone controlled (≥85% injury) black nightshade at 170 g ai/ha, did not provide control of other weeds tested when applied alone at any rate, and was safe on corn at all rates
